Laboratory results reported in US7321000B2, “Ophthalmic composition containing N-acetyl-cysteine for the treatment of dry-eye syndrome” (Farmigea S.p.A., priority 2001, dated 2008).

Assay: Stability studies: autoclaving, colorimetric determination of N-AC
Assay type: physicochemical
Settings: 120° C., 20 min.; both in the presence and absence of benzalkonium chloride
Procedure: The formulations underwent autoclaving (120° C., 20 min.): as highlighted in the prior art, N-acetyl-cysteine is degraded by about 30% (both in the presence and absence of benzalkonium chloride). It is, however, possible to carry out sterilisation by filtering through a 0.2 μm membrane, as was performed in the aforesaid examples.
In order to evaluate the stability of N-AC in the vehicle, it is not possible to use the HPLC method or ultraviolet spectrophotometry. The following calorimetric method was thus employed (Raggi M. A., Cavrini V. and Di Pietra A. M., Colorimetric determination of acetylcysteine, penicillamine and mercaptopropionylglycine in pharmaceutical dosage forms, J. Pharm. Sci., 71, 1384-1386 (1982)).
0.163 g of acetylcysteine is dissolved in 500 ml of distilled H2O. By diluting in a proportion of 1:5, the required concentration is obtained.
Increasing volumes of this solution (1-5 ml) are placed in a 25 ml flask and then the following are added in succession:
After 20 min the absorbance is measured at 515 nm by using as reference a control prepared at the same time as the sample.
The procedure described above was also applied to carry out the calibration of N-AC in the presence of DEAE-dextrane. For these samples, the measurement was carried out by using as reference a control containing the polymer and also a control without DEAE-dextrane.

degradation of N-acetyl-cysteine on autoclaving: about 30%
Compound: CC(=O)N[C@@H](CS)C(=O)O [N-acetyl-cysteine]
